Experimental findings from US10696639B2, “Heterocyclic compounds as HIV protease inhibitors” (Merck Sharp & Dohme Corp., priority 2016, dated 2020) are described below.

This assay has as its target T1, wild-type HIV-1 protease (Human immunodeficiency virus type 1 group M subtype B, UniProt P04585).
T1 construct: Escherichia coli expressed wild-type HIV-1 protease protein; made in house; host or cells: Escherichia coli
Description: Assay for Inhibition of Microbial Expressed HIV Protease. It counts as biochemical. The following applies: E. coli expressed wild-type HIV-1 protease, peptide substrate cleavage, LC-MS readout; mean of at least two independent experiments; read-out: HIV Pr Enzyme HIV1 PR IC50. As to the method: Assay for Inhibition of Microbial Expressed HIV Protease
Inhibition of Escherichia coli expressed wild-type HIV-1 protease protein was carried out with a peptide substrate [Val-Ser-Gln-Asn-(βnaphtyl)Ala-Pro-Ile-Val]. The inhibitor compound was preincubated with HIV-1 protease enzyme in assay buffer (50 mM sodium acetate, pH 5.5, 100 mM NaCl, and 0.1% BSA) for 30 minutes at room temperature. Peptide substrate was added to […] in a total volume of 20 μL containing 20 pM HIV-1 protease (final) after which the reaction was incubated for 1 hour at 30° C. The reaction was quenched by the addition of formic acid and HIV protease inhibitor indinavir to 0.012% and 150 nM final concentrations, respectively. Product formation was determined after separation of product and substrate on a ZORBAX Eclipse XDB-C18 column (Aligent Technologies, Santa Clara, Calif., USA) connected to an API 4000™ mass spectrometer (AB Sciex, Pte. Ltd., Concord Ontario, Canada) with multiple reaction monitoring (transitions were 644.5/428.9 and 615.4/422.2 (M1/M3) for product and indinavir respectively). The extent of inhibition of the reaction was determined from the peak area of the products. Analysis of the products, independently synthesized, provided quantitation standards and confirmation of the product composition.
For `COC(=O)N[C@@H](Cc1ccc(OC)cc1)C(=O)N[C@@H](C)CCCN1C(=N)N[C@](CC(C)C)(c2ccccc2)C1=O` [Example 1, N-{(1S)-4-[(4R)-2-imino-4-(2-methylpropyl)-5-oxo-4-phenylimidazolidin-1-yl]-1-methylbutyl}-N-alpha-(methoxycarbonyl)-O-methyl-L-tyrosinamide], the IC50 (in general, the concentration at which inhibition is half-maximal) was determined as 18 nM.
The figure for `N=C1NC(c2ccccc2)(c2ccccc2)C(=O)N1CCCCNC(=O)[C@@H](N)Cc1ccccc1` [Example 2, N-[4-(2-imino-5-oxo-4,4-diphenylimidazolidin-1-yl)butyl]-L-phenylalaninamide] is 11 nM.
The same measure for `CC(=O)N[C@@H](Cc1ccccc1)C(=O)NCCCCN1C(=N)NC(c2ccccc2)(c2ccccc2)C1=O` [Example 3, N-alpha-acetyl-N-[4-(2-imino-5-oxo-4,4-diphenylimidazolidin-1-yl)butyl]-L-phenylalaninamide]: 8 nM; for `COC(=O)N[C@@H](Cc1ccccc1)C(=O)NCCCCN1C(=N)NC(c2ccccc2)(c2ccccc2)C1=O` [Example 4, N-[4-(2-imino-5-oxo-4,4-diphenylimidazolidin-1-yl)butyl]-N-alpha-(methoxycarbonyl)-L-phenylalaninamide]: 10 nM.
The same measure for `N=C1NC(c2ccccc2)(c2ccccc2)C(=O)N1CCCCNC(=O)[C@@H](N)CCc1ccccc1` [Example 5, (2S)-2-amino-N-[4-(2-imino-5-oxo-4,4-diphenylimidazolidin-1-yl)butyl]-4-phenylbutanamide]: 6 nM; for `CCOC(=O)N[C@@H](Cc1ccccc1)C(=O)NCCCCN1C(=N)NC(c2ccccc2)(c2ccccc2)C1=O` [Example 6, N-alpha-(ethoxycarbonyl)-N-[4-(2-imino-5-oxo-4,4-diphenylimidazolidin-1-yl)butyl]-L-phenylalaninamide]: 4 nM.
For the compound `COC(=O)N[C@@H](Cc1ccccc1)C(=O)N[C@@H](C)CCCN1C(=N)NC(c2ccccc2)(c2ccccc2)C1=O` [Example 7, N-[(1S)-4-(2-imino-5-oxo-4,4-diphenylimidazolidin-1-yl)-1-methylbutyl]-N-alpha-(methoxycarbonyl)-L-phenylalaninamide], the IC50 was 2 nM.
The figure for `COC(=O)N[C@@H](Cc1cccnc1)C(=O)NCCCCN1C(=N)NC(c2ccccc2)(c2ccccc2)C1=O` [Example 8, methyl [(1S)-2-{[4-(2-imino-5-oxo-4,4-diphenylimidazolidin-1-yl)butyl]amino}-2-oxo-1-(pyridin-3-ylmethyl)ethyl]carbamate] is 12 nM; for `N=C1NC(c2ccccc2)(c2ccccc2)C(=O)N1CCCCNC(=O)[C@@H](N)Cc1cccnc1` [Example 9, N-[4-(2-imino-5-oxo-4,4-diphenylimidazolidin-1-yl)butyl]-3-pyridin-3-yl-L-alaninamide] it is 31 nM; for `N=C1NC(c2ccccc2)(c2ccccc2)C(=O)N1CCCCNC(=O)[C@@H](N)Cc1ccncc1` [Example 10, N-[4-(2-imino-5-oxo-4,4-diphenylimidazolidin-1-yl)butyl]-3-pyridin-4-yl-L-alaninamide] it is 34 nM.
The same measure for `COC(=O)N[C@@H](Cc1ccccc1)C(=O)N[C@@H](C)CCCN1C(=N)NC(c2ccc(F)cc2)(c2ccc(F)cc2)C1=O` [Example 11, N-{(1S)-4-[4,4-bis(4-fluorophenyl)-2-imino-5-oxoimidazolidin-1-yl]-1-methylbutyl}-N-alpha-(methoxycarbonyl)-L-phenylalaninamide]: 7 nM.
The figure for `COC(=O)N[C@@H](Cc1ccccn1)C(=O)NCCCCN1C(=N)NC(c2ccccc2)(c2ccccc2)C1=O` [Example 12, methyl [(1S)-2-{[4-(2-imino-5-oxo-4,4-diphenylimidazolidin-1-yl)butyl]amino}-2-oxo-1-(pyridin-2-ylmethyl)ethyl]carbamate] is 21 nM; for `COC(=O)N[C@@H](Cc1ccncc1)C(=O)NCCCCN1C(=N)NC(c2ccccc2)(c2ccccc2)C1=O` [Example 13, methyl [(1S)-2-{[4-(2-imino-5-oxo-4,4-diphenylimidazolidin-1-yl)butyl]amino}-2-oxo-1-(pyridin-4-ylmethyl)ethyl]carbamate] it is 7 nM; for `N=C1NC(c2ccccc2)(c2ccccc2)C(=O)N1CCCCCNC(=O)[C@@H](N)Cc1ccccc1` [Example 14, N-[5-(2-imino-5-oxo-4,4-diphenylimidazolidin-1-yl)pentyl]-L-phenylalaninamide] it is 67 nM.
In the case of `COC(=O)N[C@@H](Cc1ccccc1)C(=O)NCCCCCN1C(=N)NC(c2ccccc2)(c2ccccc2)C1=O` [Example 15, N-[5-(2-imino-5-oxo-4,4-diphenylimidazolidin-1-yl)pentyl]-N-alpha-(methoxycarbonyl)-L-phenylalaninamide], the IC50 amounted to 98 nM.
The figure for `CC(C)CC1(c2ccccc2)NC(=N)N(CCCCNC(=O)[C@@H](N)Cc2ccccc2)C1=O` (stereo partly drawn) [Example 16, N-{4-[2-imino-4-(2-methylpropyl)-5-oxo-4-phenylimidazolidin-1-yl]butyl}-L-phenylalaninamide] is 19 nM; for `COC(=O)N[C@@H](Cc1ccccc1)C(=O)NCCCCN1C(=N)NC(CC(C)C)(c2ccccc2)C1=O` (stereo partly drawn) [Example 17, N-{4-[2-imino-4-(2-methylpropyl)-5-oxo-4-phenylimidazolidin-1-yl]butyl}-N-alpha-(methoxycarbonyl)-L-phenylalaninamide] it is 20 nM.
The same measure for `CC(C)CCC1(c2ccccc2)NC(=N)N(CCCCNC(=O)[C@@H](N)Cc2ccccc2)C1=O` (stereo partly drawn) [Example 18, N-{4-[2-imino-4-(3-methylbutyl)-5-oxo-4-phenylimidazolidin-1-yl]butyl}-L-phenylalaninamide]: 25 nM; for `COC(=O)N[C@@H](Cc1ccccc1)C(=O)NCCCCN1C(=N)NC(CCC(C)C)(c2ccccc2)C1=O` (stereo partly drawn) [Example 19, N-{4-[2-imino-4-(3-methylbutyl)-5-oxo-4-phenylimidazolidin-1-yl]butyl}-N-alpha-(methoxycarbonyl)-L-phenylalaninamide]: 24 nM; for `COC(=O)N[C@@H](Cc1ccncc1)C(=O)NCCCCCN1C(=N)NC(c2ccccc2)(c2ccccc2)C1=O` [Example 20, methyl [(1S)-2-{[5-(2-imino-5-oxo-4,4-diphenylimidazolidin-1-yl)pentyl]amino}-2-oxo-1-(pyridin-4-ylmethyl)ethyl]carbamate]: 91 nM.
The same measure for `COC(=O)N[C@@H](Cc1ccncc1)C(=O)NCCCCN1C(=N)NC(CC(C)C)(c2ccccc2)C1=O` (stereo partly drawn) [Example 21, methyl [(1S)-2-({4-[2-imino-4-(2-methylpropyl)-5-oxo-4-phenylimidazolidin-1-yl]butyl}amino)-2-oxo-1-(pyridin-4-ylmethyl)ethyl]carbamate]: 46 nM; for `COC(=O)N[C@@H](Cc1ccncc1)C(=O)NCCCCN1C(=N)NC(CCC(C)C)(c2ccccc2)C1=O` (stereo partly drawn) [Example 22, methyl [(1S)-2-({4-[2-imino-4-(3-methylbutyl)-5-oxo-4-phenylimidazolidin-1-yl]butyl}amino)-2-oxo-1-(pyridin-4-ylmethyl)ethyl]carbamate]: 60 nM.
`CC1(OC(=O)N[C@@H](Cc2ccccc2)C(=O)NCCCCN2C(=N)NC(c3ccccc3)(c3ccccc3)C2=O)CC1` [Example 23, N-[4-(2-imino-5-oxo-4,4-diphenylimidazolidin-1-yl)butyl]-N-alpha-{[(1-methylcyclopropyl)oxy]carbonyl}-L-phenylalaninamide]: the IC50 was 16 nM.
